The results in this text go back to a melting point compilation (Tetko et al.; mined from patent text by program, amines drawn as free bases though some values may be those of a salt).

A word on the melting point: it is the temperature, or range, at which the solid turns liquid.

The compound `COc1ccc2c(c1)CC[C@H](CN1CCC3(CC1)C(=O)NCN3c1ccccc1)[C@@H]2O` (relative stereo) had a melting point of 182 to 183 °C.
`CONC(=O)NC1CCCc2sccc21` (stereo not given) displayed a melting point of 138 °C.
In the case of `N=C(N)N(CCCCCCCCCCC(=O)O)C(=O)c1nc(Cl)c(N)nc1N` it was 181 to 191 °C; in that of `COc1ccc(OC)c2c1COC2O` (stereo not given), 156 to 158 °C.
In the case of `CCCNC(=O)Nc1ccc(C(=O)c2c(C)c(OCCOC)c3ccccn23)cc1C(=O)OC` it was 125 °C.
In the case of `CS(=O)CCNC(=O)c1cccc(-c2ccc3c(c2)C(Oc2ccc(Cl)cc2Cl)CC3)c1` (stereo not given) it was 149 to 150 °C.
For `COC[C@H]1CN(c2ccc(OCCC3(C(F)(F)F)OCCO3)cc2)C(=O)O1`, the melting point is 112 °C.
In the case of `Cc1c(-c2ncc(Cl)cc2F)nn(C)c1C(N)=O` it was 201 to 204 °C.
Then `NC(=O)CCCOc1cccc(CCNS(=O)(=O)c2ccc(Cl)cc2)c1`, with 110 to 112 °C; and `CCCNC(=O)C=Cc1ccc2ccn(Cc3ccc(C(=O)NS(=O)(=O)c4ccccc4C)cc3OC)c2c1`, with 240 to 242 °C; and `CCCn1c(=O)cc2n(c1=O)CC(CSc1ccccc1)S2` (stereo not given), with 88 to 89 °C.
The compound `O=C(Nc1ccccn1)c1c(C(F)(F)F)nc(-c2ccccc2)c(-c2ccccc2)c1O` displayed a melting point of 208 to 210 °C.
Then `CCCc1c(N)c(C(N)=O)nn1C`, with 170 to 174 °C.
As to `CSc1nc2ncccc2c2nnc(SCc3ccccc3)n12`, the melting point was in the range of 157 to 158 °C.
In the case of `CCCCc1ccc(OC)c(-c2csc(NC(=O)c3ccc(C(=O)O)cc3)n2)c1` it was 160 °C.
Then `Cc1c(C)c2c(c(C)c1NC(=O)CC(C)(C)C)C(c1ccccc1)CO2` (stereo not given), with 146 to 147 °C.
`NC(=O)CNC(=O)COc1ccccc1` registered a melting point of 138 to 140 °C.
Then `COC(=O)C1=C(O)c2c(c3cc(OC)ccc3n2C)S(=O)(=O)N1C`, with 200 to 201 °C.
In the case of `CN1CCN(c2ccc(S(=O)(=O)Oc3ccc(Cl)cc3)cc2)C1=O` it was 165 to 168 °C; in that of `CCOC(=O)c1ccc(S(C)(=O)=O)c(-c2cc(C)no2)c1C`, 83 to 86 °C; in that of `Cc1cc(NC(=O)C(C)(O)COc2cccc(F)c2F)ccc1[N+](=O)[O-]` (stereo not given), 68 to 73 °C.
`CCOCC1(C)CCCOc2cc(C#Cc3ccc(C(=O)O)cc3)ccc21` (stereo not given): the melting point lay in the range of 170 to 171 °C.
In the case of `Cc1cc(C2(C(F)(F)F)CC(C(F)(F)F)=NO2)ccc1NC(=O)c1cccc(I)c1C(=O)NC(C)C` (stereo not given) it was 240 to 242 °C; in that of `COc1ccccc1-n1c(=O)[nH]c2c(C(N)=O)nc(-c3cccc(OC(F)(F)F)c3)nc21`, 269 to 272 °C; in that of `O=C1Cc2c3c(cc4ccccc24)N(c2ccccc2)C(=O)CN13`, 296 to 300 °C.
In the case of `CCCCCCCCCCCC(=O)c1cn(CCCC(=O)O)c2ccccc12` it was 88 to 90 °C.
`O=C1CCC(c2ccc(-c3nccs3)cc2)=NN1` showed a melting point of 265 to 266 °C.
In the case of `CC(C)(C)C(=O)N[C@@H](Cc1ccccc1)C(=O)N[C@@H](Cc1ccccc1)C(=O)NC(CO)Cc1c[nH]cn1` (stereo not given in full) it was 124 to 130 °C; in that of `CC(C)c1cccc(C(C)C)c1NC(=O)C1CCCC(Cc2ccccn2)(Cc2ccccn2)C1=O` (stereo not given), 70 to 73 °C; in that of `COc1ccc(C(=O)N2CCN(c3cc4ccccc4cn3)CC2)cc1`, 156 to 159 °C.
The compound `Cc1cc2n(C)c3ncccc3c(=O)n2n1` showed a melting point of 242 °C.
Then `CS(=O)c1ccc(CI)cc1` (stereo not given), with 80 to 81 °C.
Then `CCOC(=O)C1CCCCN1C(=O)Cl` (stereo not given), with 121 to 123 °C; and `COc1cc(C(=O)CCC(=O)O)ccc1O`, with 174 to 175 °C; and `COc1cc2c(c3c1OC(C)(C)C3)C(c1cccc(N(C(N)=O)c3cccnc3)c1)=NC(C)(C)C2`, with 168 to 169 °C.
As for `Cc1oc(-c2ccccc2)nc1CCOc1ccc(CC(C)(C)C(=O)O)cc1`, the melting point is 133 to 134 °C.
`CC1(C)C(C=C2C(C(F)(F)F)C2(F)F)C1C(=O)O` (stereo not given) yielded a melting point of 45.7 °C.
Then `Cc1oc2c(OC(C)C(N)=O)cccc2c1C` (stereo not given), with 116 to 119 °C; and `CCn1cc(C(=O)O)c(=O)c2cc(F)c(N3CCNC(COC)C3)cc21` (stereo not given), with 169 to 170 °C.
Consider `O=C1O[C@@H](c2ccccc2)N(C(=O)OCc2ccccc2)[C@H]1Cc1ccccc1`, for which the melting point is 120 to 122 °C.
Then `Nc1ccc(-c2nccc(-c3nc(-c4ccc(C(F)(F)F)cc4)cc(C(F)(F)F)n3)n2)cn1`, with 236 °C; and `CN1CCC=C(c2nnn(C)n2)C1`, with 86 to 87 °C.
In the case of `CCCCOc1ccc2ccccc2c1-c1c(OCCCC)ccc2ccccc12` it was 85 °C.
On to `CC(C)(C)[Si](C)(C)Oc1ccc(-c2ccc(C3CCC(c4c(F)cccc4F)=N3)cc2)cc1` (stereo not given), for which the melting point is 33 °C.
The compound `CC(C)(C)c1cc(NN=Cc2ccc(C(=O)O)cc2)cc(C(C)(C)C)c1` came in with a melting point of 208 to 213 °C.
The compound `CC(=O)Oc1ccc(C(=O)c2cccc(C(=O)O)c2)cc1` came in with a melting point of 190 to 193 °C.
In the case of `CC(C)=CCc1cc2cc(-c3cc(O)cc(O)c3)oc2cc1O` it was 183 to 184 °C; in that of `NC(=O)CCCCCCCCCCn1nnnc1S`, 112 to 114 °C.
Then `O=C(NCCCO)c1cc2ccccc2[nH]1`, with 152 to 156 °C.
`CC(CC=O)P(=O)(O)CCCCc1ccccc1` (stereo not given) yielded a melting point of 138 °C.
Turning to `O=C(O)Cc1ccc2c(c1)C(=O)c1ccc(Cl)cc1CO2`, the melting point lay within 188 to 190 °C.
In the case of `COc1ccc(C(=O)NCc2ccc(OCCN(C)C)cc2)cc1OC` it was 111 to 112 °C.
Compound `CN(C)Cc1ccc(CSCCNC(=N)N[N+](=O)[O-])s1` came in with a melting point of 118 °C.
Then `O=c1oc2ccc(-c3ccc(F)cc3F)cc2c(=O)n1-c1ccc(C(F)(F)F)cc1`, with 209 to 210 °C; and `C=C(C)C(=O)Oc1ccc(NS(C)(=O)=O)c(C)c1`, with 95 to 97 °C.
In turn, `CC(Cc1ccccc1)C1CC=C2C3=C(CCC21C)C1(C)CCC(O)CC1CC3` (stereo not given) gave a melting point of 156 to 157 °C.
Compound `CN(C(=O)c1ccc2nonc2c1)[C@H]1CC[C@H](N)CC1` gave a melting point of 145 to 146 °C.
In the case of `O=C(O)C1CSC(c2cc([N+](=O)[O-])ccc2OCCO[N+](=O)[O-])N1` (stereo not given) it was 99 to 101 °C; in that of `COc1ccc(Nc2ccccc2CCC(=O)c2ccccc2)cc1`, 110 to 112 °C.
Compound `CC(Cl)c1nc2cccnc2[nH]1` (stereo not given) gave a melting point of 132 °C.
In the case of `CCOC(=O)c1[nH]c2ccc(C)cc2c1Sc1ccc(Cl)cc1` it was 158 to 160 °C; in that of `O=C(O)[C@H](Cc1ccc(OCCc2coc(-c3ccccc3)n2)cc1)NS(=O)(=O)Cc1ccccc1`, 141 to 143 °C; in that of `OC(CCCN1CCc2c(c3cc(F)ccc3n2-c2ccc(F)cc2)C1)c1ccc(F)cc1` (stereo not given), 145 to 149 °C.
With `C/C(Br)=C(\Br)c1cn(-c2c(Cl)cc(C(F)(F)F)cc2Cl)nc1C#N`, the melting point lay within 134 to 135 °C.
Then `CC(C)(C)NS(=O)(=O)c1cnc(-c2cn(-c3nc(-c4ccc(Cl)cc4)cc(C(F)(F)F)n3)cn2)s1`, with 261 °C; and `Cc1ccccc1-c1cccc(C(=O)O)c1`, with 127 °C; and `O=C(Nc1ccc2[nH]c(=O)[nH]c2c1)C(=O)N1CCC(Cc2ccc(F)cc2)CC1`, with > 260 °C.
With `C/C(=C\c1ccc(O)cc1)c1ccc2c(c1)OCC(C)(C)CO2`, the melting point was in the range of 70 to 71 °C.
In the case of `BrC(Br)(Br)c1nc2ccccc2s1` it was 79 to 80 °C.
`COc1cc2ncc(NC3CCCCC3)nc2cc1N1CCOCC1` showed a melting point of 194 to 196 °C.
Regarding `COC(=O)C=Cc1cnc(Cl)cc1NCc1ccc(OC)c(Cl)c1`, the melting point was 170 to 171 °C.
Then `O=C1c2nccnc2C(=O)N1c1ccc(Cl)cn1`, with 165 °C; and `COc1cc2c(cc1N1CCNCC1)N(C(=O)c1ccc(-c3ccc(-c4noc(C)n4)cc3C)cc1)CC2`, with 153 to 155 °C; and `Nc1ncnc2c1nnn2C1CCC(O)C1O` (stereo not given), with 244 to 245 °C.
`CCOC(=O)CSCc1cc(-c2nn(C)c(C(F)(F)F)c2Cl)c(F)cc1Cl` displayed a melting point of 63 °C.
`CC(=O)Nc1ccc(Cn2cnc3c(-c4ccco4)ncnc32)cc1` came in with a melting point of 278 to 280 °C.
In the case of `Cc1ccccc1SCc1c(CCN(C)C)[nH]c2ccccc12` it was 134 to 137 °C; in that of `CCCCSC(Cn1cncn1)c1ccc(Cl)cc1Cl` (stereo not given), 143 °C; in that of `COc1cc(N2CCC(N3CCOCC3)C2)ccc1Nc1ncc2ccc(-c3ccccc3OC)n2n1` (stereo not given), 80 to 87 °C.
Then `CCc1cccc(CC)c1NCC(=O)NC(=S)NNC`, with 166 °C; and `CC(C)N1CCC(CN2CCN(CCCN3CCCCC3)C2=C(C#N)C#N)CC1`, with 115 to 117 °C; and `O=C(c1cccc(Cc2ccc(=O)[nH]n2)c1)c1c(Cl)cc(Cl)cc1Cl`, with 149 to 151 °C.
Then `Cc1cc(C)c(C(=O)c2ccccc2)c(OCC2CO2)c1` (stereo not given), with 72 to 74 °C; and `O=C1CN=C(c2ccccc2)c2ccccc2N1CC(F)(F)F`, with 130 to 131 °C; and `Nc1nc(NC2CCc3ccccc32)c2ncn(C3OC(CO)C(O)C3O)c2n1` (stereo not given), with 143 to 146 °C.
`N#Cc1ccc(Oc2ccccc2Oc2ccc(C#N)cc2)cc1` showed a melting point of 112 °C.
With `CNC(=O)c1cccc(NC(=O)NCc2ccccc2)c1`, the melting point fell in the range of 189 to 190 °C.
`Cn1c(C(F)(F)F)cc(=O)n(-c2ccc3snc(C(Cl)Br)c3c2)c1=O` (stereo not given) yielded a melting point of 93 to 96 °C.
Then `CC(C)(C)OC(=O)N1CCN(C(=O)SCc2ccc(O[Si](C)(C)C(C)(C)C)cc2)CC1`, with 53 to 54 °C; and `c1cc(CN2CCCC2)cc(OCCCNc2nc3ccccc3s2)c1`, with 91 to 92 °C.
